This is an account of results in ChEMBL document CHEMBL4052725, “Synthesis and biological evaluation of novel steroidal 5α,8α-epidioxyandrost-6-ene-3β-ol-17-(O-phenylacetamide)oxime derivatives as potential anticancer agents” (Bioorg Med Chem Lett, 2017).

The IC50 is the point on the concentration scale where inhibition reaches its midpoint. Lower therefore signals higher potency.

For series [1], the system named is MCF7. Nature of the series: Antiproliferative activity against human MCF7 cells after 48 hrs by MTT assay. The settings on record: MCF7, 48 h. It is filed as functional, cell-based. In general terms: Tetrazolium dyes change colour on reduction, which living cells bring about.
For series [2], the system named is HepG2. Kind of series: Antiproliferative activity against human HepG2 cells after 48 hrs by MTT assay. The conditions noted are these: HepG2, 48 h. In kind it is functional, cell-based.
Series [3] has as its system MDA-MB-231. Kind of series: Antiproliferative activity against human MDA-MB-231 cells after 48 hrs by MTT assay. In kind it is functional, cell-based. The settings on record: MDA-MB-231, 48 h.
The test system of series [4] is SK-HEP1. Kind of series: Antiproliferative activity against human SKHEP1 cells after 48 hrs by MTT assay. It is filed as functional, cell-based. The settings on record: SK-HEP1, 48 h.
A short description of series [5]: Drug localization in mitochondria of human HepG2 cells at 10 uM after 30 mins by Rh123 green dye-based confocal laser scanning microscopic analysis. In kind it is ADME. The conditions noted are these: 0.5 h.
Series [6] is described as follows: Drug localization in human HepG2 cells at 10 uM after 2 hrs by confocal laser scanning microscopic analysis. The conditions noted are these: hepg2, 2 h. In kind it is ADME, cell-based.

`CC(C)c1ccc(NC(=O)CO/N=C2\CC[C@H]3C4=CC=C5C[C@@H](O)CC[C@]5(C)[C@H]4CC[C@]23C)cc1`: the IC50 in series [1] amounted to 31.6 µM; in series [2], 26.7 µM; in series [3] it was 35 µM; in series [4] it was 23.2 µM.
The like results for `C[C@]12CC[C@@H]3[C@]4(C=C[C@]5(C[C@@H](O)CC[C@]35C)OO4)[C@@H]1CC/C2=N\OCC(=O)Nc1cccc(F)c1` were, in that order, 29.5 µM, 40.5 µM, 26.3 µM and 37.6 µM.
On to `C[C@]12CC[C@H](O)CC1=CC=C1[C@@H]2CC[C@]2(C)/C(=N/OCC(=O)Nc3ccccc3)CC[C@@H]12`, for which the IC50 in series [1] was over 80 µM; in series [2], over 80 µM; in series [3] it was over 80 µM; in series [4], 73.8 µM.
As for `Cc1cccc(NC(=O)CO/N=C2\CC[C@H]3[C@@]45C=C[C@]6(C[C@@H](O)CC[C@]6(C)[C@@H]4CC[C@]23C)OO5)c1`, the IC50 came to 41.6 µM in series [1], 35.4 µM in series [2], 45.5 µM in series [3] and 30.6 µM in series [4].
Regarding `C[C@]12CC[C@@H]3[C@]4(C=C[C@]5(C[C@@H](O)CC[C@]35C)OO4)[C@@H]1CC/C2=N\OCC(=O)Nc1cccc(Cl)c1`, the IC50 stood at 34.4 µM in series [1], 15.4 µM in series [2], 29.5 µM in series [3] and 22.8 µM in series [4].
On to `C[C@]12CC[C@H](O)CC1=CC=C1[C@@H]2CC[C@]2(C)/C(=N/OCC(=O)Nc3cccc(C(F)(F)F)c3)CC[C@@H]12`, for which the IC50 worked out at 21.3 µM in series [1], 14.4 µM in series [2], 19.4 µM in series [3] and 16.5 µM in series [4].
The like results for `COc1ccc(NC(=O)CO/N=C2\CC[C@H]3[C@@]45C=C[C@]6(C[C@@H](O)CC[C@]6(C)[C@@H]4CC[C@]23C)OO5)cc1` were, in that order, 52.2 µM, 49.5 µM, 46.4 µM and 41.4 µM.
Turning to `C[C@]12CC[C@@H]3[C@]4(C=C[C@]5(C[C@@H](O)CC[C@]35C)OO4)[C@@H]1CC/C2=N\OCC(=O)Nc1ccc(Cl)cc1`, the IC50 in series [1] came to 19.5 µM; in series [2] it was 14.8 µM; in series [3], 14.2 µM; in series [4], 11.1 µM.
The matching figures for `C#Cc1cccc(NC(=O)CO/N=C2\CC[C@H]3[C@@]45C=C[C@]6(C[C@@H](O)CC[C@]6(C)[C@@H]4CC[C@]23C)OO5)c1`: 31.6 µM, 44.2 µM, 25.1 µM and 38.2 µM.
The like results for `Cc1ccc(NC(=O)CO/N=C2\CC[C@H]3[C@@]45C=C[C@]6(C[C@@H](O)CC[C@]6(C)[C@@H]4CC[C@]23C)OO5)cc1Cl` were, in that order, 22.7 µM, 9.3 µM, 17.5 µM and 12.1 µM.
`Cc1ccc(NC(=O)CO/N=C2\CC[C@H]3C4=CC=C5C[C@@H](O)CC[C@]5(C)[C@H]4CC[C@]23C)cc1Cl`: the IC50 in series [1] worked out at 34.3 µM; in series [2], 17.8 µM; in series [3] it was 29.2 µM; in series [4], 19.8 µM.
Turning to `CCN(CC)c1ccc2cc(C(=O)NCC(=O)OC3CC[C@]4(C)[C@@H]5CC[C@]6(C)/C(=N/OCC(=O)Nc7ccc(C(C)C)cc7)CC[C@H]6[C@@]56C=C[C@]4(C3)OO6)c(=O)oc2c1` (some centres undefined), the IC50 in series [1] stood at 9.64 µM; in series [2] it was 8.4 µM; in series [3], 7.22 µM; in series [4] it was 7.52 µM. Also, the Drug uptake entry in series [5] and in series [6] was “Active” throughout.
As for `C[C@]12CC[C@@H]3[C@]4(C=C[C@]5(C[C@@H](O)CC[C@]35C)OO4)[C@@H]1CC/C2=N\OCC(=O)Nc1ccc(F)cc1`, the IC50 in series [1] stood at 14.5 µM; in series [2], 15.8 µM; in series [3] it was 12.7 µM; in series [4], 10.7 µM.
The matching figures for `COc1cccc(NC(=O)CO/N=C2\CC[C@H]3C4=CC=C5C[C@@H](O)CC[C@]5(C)[C@H]4CC[C@]23C)c1`: over 80 µM, 70.6 µM, 59.3 µM and over 80 µM.
The matching figures for `C[C@]12CC[C@@H]3[C@]4(C=C[C@]5(C[C@@H](O)CC[C@]35C)OO4)[C@@H]1CC/C2=N\OCC(=O)Nc1cccc(C(F)(F)F)c1`: 23.1 µM, 13.5 µM, 20.4 µM and 15.6 µM.
The matching figures for `C[C@]12CC[C@@H]3[C@]4(C=C[C@]5(C[C@@H](O)CC[C@]35C)OO4)[C@@H]1CC/C2=N\OCC(=O)Nc1ccccc1`: over 80 µM, 48.3 µM, 74.2 µM and 60.4 µM.
In the case of `Cc1ccc(NC(=O)CO/N=C2\CC[C@H]3[C@@]45C=C[C@]6(C[C@@H](O)CC[C@]6(C)[C@@H]4CC[C@]23C)OO5)cc1`, the concentration for half-maximal inhibition (IC50) in series [1] was 62.2 µM; in series [2], 38.3 µM; in series [3], over 80 µM; in series [4] it was 46.3 µM.
The like results for `CC(C)[C@@H](C)/C=C/[C@@H](C)[C@H]1CC[C@@H]2[C@]1(C)CC[C@@H]1[C@]23C=C[C@]2(C[C@@H](O)CC[C@]12C)OO3` were, in that order, 23.3 µM, 15.8 µM, 19.2 µM and 17.2 µM.
For `C[C@]12CC[C@@H]3[C@]4(C=C[C@]5(C[C@@H](O)CC[C@]35C)OO4)[C@@H]1CC/C2=N\OCC(=O)Nc1ccc(Br)cc1`, the IC50 in series [1] is 40.3 µM; in series [2] it was 29.9 µM; in series [3] it was 37.5 µM; in series [4], 24.4 µM.
The like results for `C[C@]12CC[C@H](O)CC1=CC=C1[C@@H]2CC[C@]2(C)/C(=N/OCC(=O)Nc3cccc(Cl)c3)CC[C@@H]12` were, in that order, 42.1 µM, 22.7 µM, 33.5 µM and 26.6 µM.
The like results for `COc1cccc(NC(=O)CO/N=C2\CC[C@H]3[C@@]45C=C[C@]6(C[C@@H](O)CC[C@]6(C)[C@@H]4CC[C@]23C)OO5)c1` were, in that order, 43.2 µM, 44.9 µM, 57.3 µM and 50.2 µM.
Turning to `CC(C)c1ccc(NC(=O)CO/N=C2\CC[C@H]3[C@@]45C=C[C@]6(C[C@@H](O)CC[C@]6(C)[C@@H]4CC[C@]23C)OO5)cc1`, the IC50 is 20.4 µM in series [1], 12.1 µM in series [2], 15.8 µM in series [3] and 14.6 µM in series [4].
The matching figures for `C[C@]12CC[C@@H]3[C@]4(C=C[C@]5(C[C@@H](O)CC[C@]35C)OO4)[C@@H]1CC/C2=N\OCC(=O)Nc1ccc(F)c(Cl)c1`: 26.2 µM, 11.3 µM, 24.6 µM and 14.3 µM.
